# From patent publication US20220289708A1, “SUBSTITUTED N-PHENYL URACILS, SALTS THEREOF AND THEIR USE AS HERBICIDAL AGENTS” (Bayer Aktiengesellschaft, priority 2019, published 2022)
# Key:
# Assay in all cases: Post-emergence herbicidal action
# Format in all cases: in vivo
# Abutilon theophrasti = conditions: rated visually after about 3 weeks vs untreated controls
# How it was run: (§1)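 Percent activity, judged by eye about 3 weeks after treatment relative to untreated plants, ranges from 0% (as control) to 100% (plants dead). Foliar application at 20 g/ha and less was made at the one-leaf stage using a 600 l/ha aqueous spray containing 0.5% additive.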
# Alopecurus myosuroides = conditions: rated visually after about 3 weeks vs untreated controls
# How it was run: as §1
# Amaranthus retroflexus = conditions: rated visually after about 3 weeks vs untreated controls
# How it was run: as §1
# Avena fatua = conditions: rated visually after about 3 weeks vs untreated controls
# How it was run: as §1
# Digitaria sanguinalis = conditions: rated visually after about 3 weeks vs untreated controls
# How it was run: as §1
# Echinochloa crus-galli = conditions: rated visually after about 3 weeks vs untreated controls
# How it was run: as §1
# Hordeum murinum = system: Hordeum murinum
# How it was run: as §1
# Lolium rigidum = conditions: rated visually after about 3 weeks vs untreated controls
# How it was run: as §1
# Matricaria inodora = conditions: rated visually after about 3 weeks vs untreated controls
# How it was run: as §1
# Pharbitis purpurea = conditions: application rate 5 g/ha, rated visually after about 3 weeks vs untreated controls
# How it was run: as §1
# Polygonum convolvulus = conditions: application rate 5 g/ha
# How it was run: as §1
# Setaria viridis = conditions: application rate 5 g/ha, rated visually after about 3 weeks vs untreated controls
# How it was run: as §1
# Stellaria media = conditions: application rate 5 g/ha, rated visually after about 3 weeks vs untreated controls
# How it was run: as §1
# Veronica persica = system: Veronica persica
# How it was run: as §1
# Viola tricolor = conditions: application rate 5 g/ha
# How it was run: as §1
SMILES,Abutilon theophrasti (efficacy in %) (Abutilon theophrasti; application rate 5 g/ha) [%],Alopecurus myosuroides (efficacy in %) (Alopecurus myosuroides; application rate 5 g/ha) [%],Amaranthus retroflexus (efficacy in %) (Amaranthus retroflexus; application rate 5 g/ha) [%],Avena fatua (efficacy in %) (Avena fatua; application rate 20 g/ha) [%],Digitaria sanguinalis (efficacy in %) (Digitaria sanguinalis; application rate 5 g/ha) [%],Echinochloa crus-galli (efficacy in %) (Echinochloa crus-galli; application rate 5 g/ha) [%],Hordeum murinum (efficacy in %) (Hordeum murinum; application rate 20 g/ha) [%],Lolium rigidum (efficacy in %) (Lolium rigidum; application rate 20 g/ha) [%],Pharbitis purpurea (efficacy in %) (Pharbitis purpurea) [%],Polygonum convolvulus (efficacy in %) (Polygonum convolvulus) [%],Setaria viridis (efficacy in %) (Setaria viridis) [%],Stellaria media (efficacy in %) (Stellaria media) [%],Veronica persica (efficacy in %) (Veronica persica; application rate 5 g/ha) [%],Viola tricolor (efficacy in %) (Viola tricolor) [%],Matricaria inodora (efficacy in %) (Matricaria inodora; application rate 5 g/ha) [%],further results
Cn1c(C(F)(F)F)cc(=O)n(-c2cc(Oc3cccnc3OCC(=O)OCC3CCCO3)c(Cl)cc2F)c1=O (centres unmarked) [I.15-71],100,90,100,80,100,100,100,100,100,100,100,100,100,100,,Matricaria inodora (efficacy in %) (Matricaria inodora; application rate 20 g/ha): 100%
"COCCOC(=O)COc1ncccc1Sc1cc(-n2c(=O)cc(C(F)(F)F)n(C)c2=O)c(F)cc1Cl [I.1-1, 2-Methoxyethyl {[3-({2-chloro-4-fluoro-5-[3-methyl-2,6-dioxo-4-(trifluoromethyl)-3,6-dihydropyrimidin-1(2H)-yl]phenyl}sulfanyl)pyridin-2-yl]oxy}acetate]",,,,80,,,,80,100,100,100,90,100,100,100,Abutilon theophrasti (efficacy in %) (Abutilon theophrasti; application rate 20 g/ha): 100%; Alopecurus myosuroides (efficacy in %) (Alopecurus myosuroides; application rate 20 g/ha): 80%; Amaranthus retroflexus (efficacy in %) (Amaranthus retroflexus; application rate 20 g/ha): 100%; Digitaria sanguinalis (efficacy in %) (Digitaria sanguinalis; application rate 20 g/ha): 100%; Echinochloa crus-galli (efficacy in %) (Echinochloa crus-galli; application rate 20 g/ha): 100%; Hordeum murinum (efficacy in %) (Hordeum murinum; application rate 5 g/ha): 80%
"Cn1c(C(F)(F)F)cc(=O)n(-c2cc(Oc3cccnc3OCC(=O)OCC3CCOC3)c(Cl)cc2F)c1=O (centres unmarked) [I.15-72, Tetrahydrofuran-3-ylmethyl [(3-{2-chloro-4-fluoro-5-[3-methyl-2,6-dioxo-4-(trifluoromethyl)-3,6-dihydropyrimidin-1(2H)-yl]phenoxy}pyridin-2-yl)oxy]acetate]",100,90,100,,100,100,,100,100,100,100,100,100,100,90,Avena fatua (efficacy in %) (Avena fatua; application rate 5 g/ha): 80%; Hordeum murinum (efficacy in %) (Hordeum murinum; application rate 5 g/ha): 90%
COCCOC(=O)CSc1ncccc1Sc1cc(-n2c(=O)cc(C(F)(F)F)n(C)c2=O)c(F)cc1Cl [I.10-1],80,80,80,80,80,100,90,,80,100,80,100,,100,90,Veronica persica (efficacy in %) (Veronica persica; application rate 20 g/ha): 90%
Cn1c(C(F)(F)F)cc(=O)n(-c2cc(Sc3cccnc3OCC(=O)OCC3CCCO3)c(Cl)cc2F)c1=O (centres unmarked) [I.1-71],100,80,100,80,100,100,80,,100,100,100,100,100,100,100,Lolium rigidum (efficacy in %) (Lolium rigidum; application rate 5 g/ha): 100%
"COCCCOC(=O)COc1ncccc1Oc1cc(-n2c(=O)cc(C(F)(F)F)n(C)c2=O)c(F)cc1Cl [I.15-26, 3-Methoxypropyl [(3-{2-chloro-4-fluoro-5-[3-methyl-2,6-dioxo-4-(trifluoromethyl)-3,6-dihydropyrimidin-1(2H)-yl]phenoxy}pyridin-2-yl)oxy]acetate]",100,,100,90,100,100,100,,100,100,100,100,100,100,,Alopecurus myosuroides (efficacy in %) (Alopecurus myosuroides; application rate 20 g/ha): 90%; Lolium rigidum (efficacy in %) (Lolium rigidum; application rate 5 g/ha): 80%
COCCCOC(=O)CSc1ncccc1Sc1cc(-n2c(=O)cc(C(F)(F)F)n(C)c2=O)c(F)cc1Cl [I.10-26],100,80,100,,,,,80,100,100,100,100,80,100,,Digitaria sanguinalis (efficacy in %) (Digitaria sanguinalis; application rate 20 g/ha): 100%; Echinochloa crus-galli (efficacy in %) (Echinochloa crus-galli; application rate 20 g/ha): 100%; Matricaria inodora (efficacy in %) (Matricaria inodora; application rate 20 g/ha): 100%
